In US20230098772A1, “ADVANCED MICROBIOME THERAPEUTICS ENGINEERED TO PRODUCE SEROTONIN IN VIVO” (DANMARKS TEKNISKE UNIVERSITET, priority 2019, published 2023):

B1: mutant GCH1: mutant GTP cyclohydrolase I with T198I substitution encoded by mutated folE gene (protein, UniProt P0A6T5 2-222, looked up, variant T198I)
GTP cyclohydrolase 1: PSLSKEAALVHEALVARGLETPLRPPVHEMDNETRKSLIAGHMTEIMQLLNLDLADDSLMETPHRIAKMYVDEIFSGLDYANFPKITLIENKMKVDEMVTVRDITLTSTCEHHFVTIDGKATVAYIPKDSVIGLSKINRIVQFFAQRPQVQERLTQQILIALQTLLGTNNVAVSIDAVHYCVKARGIRDATSATTTISLGGLFKSSQNTRHEFLRAVRHHN

Assays:
[1] = test system: mice; experiment: Open Field Test after 21 days treatment, comparison with fluoxetine; type: in vivo, mice (C57BL/6); conditions: oN14 10^9 cells oral gavage, fluoxetine 10 mg/kg I.P.
Procedure: 9.1.3 Open Field Test: Each mouse was placed in a white, open-roof, well lite, 50 cm (length)×50 cm (width)×38 cm (height) chamber and recorded for 10 minutes following previously described methods (Spohn, S. N. et al., 2016). Mice were then placed back into their original cage. Fecal pellets produced during the 10-minute test were counted. Recordings were then post processed and analyzed using BehaviorCloud as previously described (Spohn, S. N. et al., 2016). Mouse tracking software recorded total path of movement of each mouse, total distance traveled, time spent in the inner zone defined as the […] and outer zone defined as the outer 10 cm border closest to the walls, number of times entering the inner zone, and distance traveled within the inner zone.
(§1) 10.1.1 Administration: as described for oral administration in 6.1.1, but with the following modifications: The mice were administered sterile PBS only (PBS) or freshly-grown 10^9 cells of E. coli Nissle strain designated oN14 (E. coli Nissle strain oN comprising pMUT14-ser) in sterile PBS (oN14) by oral gavage. Additionally, the mice were administered a 200 μl intraperitoneal (I.P.) injection of saline or the SSRI, fluoxetine at 10 mg/kg body weight in saline. The mice received the oral and IP administered co-treatments every 24 hrs at the same time of day for 21 days. Accordingly, the four mice treatment groups received: IP: saline/Gavage: PBS (negative control); IP: Fluoxetine/Gavage: PBS (SSRI positive comparator), IP: saline/Gavage: oN14 (oN14 positive comparator); and IP: Fluoxetine/Gavage: oN14 (positive combination comparator). 24 hours after the last administration, the mice were subjected to motility and behavioral testing.

[2] = test system: mice; experiment: Forced Swim Test after 21 days treatment, comparison with fluoxetine; type: in vivo, mice (C57BL/6); conditions: oN14 10^9 cells oral gavage, fluoxetine 10 mg/kg I.P.
Procedure: 9.1.2 Forced Swim Test: Each mouse was placed in clear cylindrical tanks (30 cm height×20 cm) with 15 cm of water at 23-25° C. for 6 minutes and recorded, as described by Ferguson (2001). Mice were then towel dried and placed under a heat lamp to dry to prevent hypothermia and then placed back in their original cage. Recordings were de-identified and a blinded observer, scored recordings for the time spent immobile during the last 4 minutes of the 6-minute test, as described by Can et al., (2012).
as §1, with “24 hours after the last administration, the mice were subjected to motility and behavioral testing.” left out

[3] = test system: 5-HT biosynthetic pathway; experiment: In vitro metabolite production by E. coli Nissle strains (LC-MS of culture media); type: cell-based; conditions: strains comprising pMUT10-5htp; vs folE WT; FIG. 5F
Procedure: Strains were grown in a modified M9 medium, containing 1× M9 salts (M6030, Sigma Aldrich), 0.2% (w/v) glucose, 0.1% (w/v) casamino acids (Cat. No. C2000, Teknova), 1 mM MgSO4, 50 μM FeCl3, 0.2% (v/v) 2YT medium (composition see below), and 50 mg/L of L-tryptophan unless stated otherwise. Kanamycin was added at a final concentration of 50 mg/L unless stated otherwise. Three single colonies were picked from each strain, grown in 300 μl medium in 96 deep-well plates and shaken at 250 rpm at 37° C. for 16 hours. The main culture was inoculated by diluting this pre-culture 1:100 into fresh medium, and cells were grown for 24 h under the same conditions. In the case of substrate feeding, TRP and 5-HTP was added to the growth medium in an amount of 100 mg TRP or 5-HTP/L. Afterwards, the culture supernatant was separated from cells using a 0.2 μm pore size filter, and frozen at −20° C. until analysis by LC-MS. […]
Detection of serotonin, tryptamine, tryptophan and 5-HTP were conducted by liquid chromatography mass spectrometry (LC-MS) measurements on a Dionex UltiMate 3000 UHPLC (Fisher Scientific, San Jose, Calif.) connected to an Orbitrap Fusion Mass Spectrometer (Thermo Fisher Scientific, San Jose, Calif.). […] Quantification of the compounds was based on calculations from calibration standards analyzed before and after sets of 24 samples. […]

Row | Molecule | distance travelled in the inner zone in OFT [1] | fecal boli produced during the OFT [1] | time spent in the inner zone in OFT [1] | total number of entries in the inner zone in OFT [1] | time of immobility in Forced Swim Test [2] | increase of hydroxylation of tryptophan to 5-hydroxytryptophan catalyzed by human tryptophan 5-hydroxylase [3]
1 | CNCCC(Oc1ccc(C(F)(F)F)cc1)c1ccccc1 (stereo not drawn) [Fluoxetine] | increased | reduction | increased | increased | significantly reduce | 
2 | B1 |  |  |  |  |  | 4 fold
